In patent publication US20250084121A1, “BIOREACTIVE COMPOSITIONS AND METHODS OF USE THEREOF” (The Regents of the University of California, priority 2018, published 2025):

How the values were obtained:
[1] = tested on: HeLa-EGFP-182TAG reporter cells; assay: Fluorescence confocal microscopy of reporter cells; assay type: cell-based; conditions: in the presence of FSY
Description: FSY incorporation into proteins in mammalian cells was tested. HeLa-EGFP-182TAG reporter cells were transfected with plasmid pMP-FSYRS-3×tRNA, which expresses FSYRS and tRNA^Pyl genes. Wang et al, Nat. Neurosci., 10:1063-1072 (2007). Suppression of the 182TAG codon would produce full-length EGFP rendering cells fluorescent. After transfection, cells were incubated with FSY of various concentrations at 37° C. for 24 or 48 h followed by flow cytometry. […] The fluorescence intensity increased with FSY concentration and incubation time (FIG. 2B, FIG. 7). As a positive control, p-azido-L-phenylalanine (AzF) was incorporated into reporter cells in parallel using plasmid pIre-Azi3, which is the most efficient Uaa incorporation system in mammalian cells in our hands. Coin et al, Cell, 155:1258-1269 (2013). FSY incorporation compared favorably with AzF, reaching 76% of the AzF level. […] Chen et al, J. Am. Chem. Soc., 138:7353-7364 (2016). […] No fluorescence signal was detected when FSY was not added.
Fluorescence confocal microscopy of HeLa-EGFP-182TAG reporter cells: One day before transfection, 4.5×10^4 HeLa-EGFP-182TAG cells were seeded in a Greiner bio-one CELLview glass bottom dish containing 500 μL of DMEM media with 10% FBS, and incubated at 37° C. in a CO2 incubator. […]

293T cells = assay: Cell viability assay with various concentrations of FSY; assay type: cell-based
[2] = tested on: HeLa-EGFP-182TAG reporter cells; assay: FACS analysis of Uaa incorporation into EGFP-182TAG reporter cells; assay type: cell-based
Description: FSY incorporation into proteins in mammalian cells was tested. HeLa-EGFP-182TAG reporter cells were transfected with plasmid pMP-FSYRS-3×tRNA, which expresses FSYRS and tRNA^Pyl genes. Wang et al, Nat. Neurosci., 10:1063-1072 (2007). Suppression of the 182TAG codon would produce full-length EGFP rendering cells fluorescent. After transfection, cells were incubated with FSY of various concentrations at 37° C. for 24 or 48 h followed by flow cytometry. […] The fluorescence intensity increased with FSY concentration and incubation time (FIG. 2B, FIG. 7). As a positive control, p-azido-L-phenylalanine (AzF) was incorporated into reporter cells in parallel using plasmid pIre-Azi3, which is the most efficient Uaa incorporation system in mammalian cells in our hands. Coin et al, Cell, 155:1258-1269 (2013). […] No fluorescence signal was detected when FSY was not added.
FACS analysis of Uaa incorporation into HeLa-GFP-182TAG reporter cells: One day before transfection, 4.5×10^4 HeLa-EGFP-182TAG reporter cells (Wang et al, Nat. Neurosci., 10:1063-1072 (2007)) were seeded in a Greiner bio-one 24 well-cell culture dish containing 500 μL of DMEM media with 10% FBS, and incubated at 37° C. in a CO2 incubator. […] The cells were resuspended in 300 μL of FACS buffer (1×PBS, 2% FBS, 1 mM EDTA, 0.1% sodium azide, […]) and analyzed by BD LSRFortessa™ cell analyzer.

[3] = tested on: HeLa-EGFP-182TAG reporter cells; assay: Cell viability assay with various concentrations of FSY; assay type: cell-based
E. coli DH10B cells = assay: Growth curve of E. coli DH10B cells in the presence or absence of FSY; assay type: cell-based; conditions: 1 mM FSY, 37° C.
Description: FIG. 6 provides a growth curve of E. coli DH10B cells at 37° C. in the presence or absence of 1 mM FSY. The experiments were repeated for three times.
The incorporation specificity of FSY into proteins in E. coli was evaluated. The Zspa affibody (Afb) gene containing a TAG codon at position 36 (Afb-36TAG) was co-expressed with the tRNA^Pyl/FSYRS pair in E. coli. In the absence of FSY, no full-length Afb was detected; when 1 mM FSY was added in growth media, full-length Afb36FSY was produced with a yield of 1.6 mg/L (FIG. 1C). The purified Afb36FSY was analyzed by electrospray ionization time-of-flight mass spectrometry (ESI-TOF MS) (FIG. 1D). A peak observed at 7855.96 Da corresponds to intact Afb containing FSY at site 36 (Afb36FSY: expected 7856.69 Da). A peak measured at 7724.77 Da corresponds to Afb36FSY lacking the initiating Met (Afb36FSY-Met: expected 7725.50 Da). […] FSY was also incorporated at position 24 of the Z protein and analyzed with tandem MS.

[4] = tested on: STAT5 phosphorylation in BAF3 cells, a cell line with hGH receptor expression; assay: pSTAT5 production in BAF3 cells upon stimulation by hGH (Western blot); assay type: cell-based; conditions: Western blot of cell lysates
From the text: It was also examined whether FSY incorporation into hGH would affect its biological activity. Upon hGH binding with its receptor, STAT5 is phosphorylated as a downstream signal via the JAK/STAT pathway, leading to transcription of genes important for cell immunity, proliferation, and apoptosis (Waters, M J. et al. Clin. Exp. Pharmacol. Physiol. 1999, 10760-764). The inventors stimulated BAF3 cells, a cell line with hGH receptor expression, with hGH(WT) and hGH(FSY), and then probed pSTAT5 expression using Western blot analysis of cell lysates.

[5] = target: T1, extracellular domain of the hGH receptor (Homo sapiens, UniProt P10912); assay: Covalent crosslinking of hGH with the extracellular domain of hGH receptor (Western blot); assay type: binding; conditions: PBS buffer, different durations of time, Western blot anti-Hisx6
T1 construct: incubated with the extracellular domain of the hGH receptor
T1 sequence (P10912 19-264): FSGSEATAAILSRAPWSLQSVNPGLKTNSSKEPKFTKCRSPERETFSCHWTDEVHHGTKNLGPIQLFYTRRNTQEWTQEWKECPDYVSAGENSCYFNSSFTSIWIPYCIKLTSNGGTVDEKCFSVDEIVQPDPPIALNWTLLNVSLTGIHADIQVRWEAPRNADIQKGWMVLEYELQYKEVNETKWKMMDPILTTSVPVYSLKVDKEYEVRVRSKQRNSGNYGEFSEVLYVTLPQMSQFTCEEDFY

Compound | cell morphology [1] | toxicity to 293T cells (293T cells) | FSY incorporation relative to the AzF level ([2]; EGFP-182TAG suppression in HeLa reporter cells, AzF as positive control) [%] | EGFP fluorescence by flow cytometry ([2]; cells transfected with pMP-FSYRS-3×tRNA, FSY at 37° C. for 24 or 48 h) | toxicity to HeLa cells [3] | E. coli growth (cytotoxicity) (E. coli DH10B cells) | stimulation of STAT5 phosphorylation [4] | covalent crosslinking with the hGH receptor (band at ~50 kD) [5]
N[C@@H](Cc1ccc(OS(=O)(=O)F)cc1)C(=O)O [FSY, fluorosulfate-L-tyrosine] | remained normal | no obvious toxicity | 76 | Strong EGFP fluorescence | no obvious toxicity | did not affect E. coli growth |  | 
hGH(FSY): Human growth hormone with FSY genetically incorporated at site 68 |  |  |  |  |  |  | the same effect of stimulating STAT5 phosphorylation as the hGH(WT) | covalently crosslinked
